These results are taken from ChEMBL document CHEMBL5727003, “Therapeutic inhibitory compounds” (2019).

By IC50 is commonly meant the concentration needed to halve the response being measured.

Structures are written as SMILES. Where only a bound is given, the exact number is not on record here.

The target of the test is Plasma kallikrein (Homo sapiens, UniProt P03952). In words: In Vitro Enzyme Inhibition: A 10 mM solution of the test compound was made in DMSO. This solution was serially diluted 1:5 in DMSO to yield 2000, 400, 80, 16, 3.2, 0.64, 0.128, 0.0256 and 0.00512 μM compound test solutions. A control tube containing only DMSO is included. 16 μL of each compound test solution was combined with 384 μL of assay buffer (50 mM Tris-HCl pH 7.5, 150 mM NaCl, 0.01% Triton X-100) to yield a “4× test compound buffer stock”.Separately, a 40 nM solution of human Plasma Kallikrein (Abcam) and a 93.6 μM solution Pro-Phe-Arg-AMC (Bachem) were made using assay buffer. These solutions are hereby referred to as 4×hPK and 2×PFR-AMC, respectively.60 μL of each 4× test compound buffer stock was combined with 60 μL of 4×hPK to yield 120 μL of “2× test compound buffer stock/2×hPK”. 50 μL was removed from this mixture and placed into duplicate wells on a Microfluor 1Black U-bottom microtiter plate (Thermo Scientific). This plate was incubated for 5 minutes at 37° C. To each well, 50 μL of pre-warmed 2×PFR-AMC was added to start the enzymatic reaction. Cleavage of PFR-AMC was monitored in a Biotek Synergy H4 reader set at 37° C. Readings are taken every 43 seconds for 1 hour. The highest mean velocity over 20 reads (˜15 minutes) is used to calculate the IC50. The IC50 is calculated using the Gen5 (Biotek Instruments).
Sequence of Plasma kallikrein (P03952 20-390 limits assumed): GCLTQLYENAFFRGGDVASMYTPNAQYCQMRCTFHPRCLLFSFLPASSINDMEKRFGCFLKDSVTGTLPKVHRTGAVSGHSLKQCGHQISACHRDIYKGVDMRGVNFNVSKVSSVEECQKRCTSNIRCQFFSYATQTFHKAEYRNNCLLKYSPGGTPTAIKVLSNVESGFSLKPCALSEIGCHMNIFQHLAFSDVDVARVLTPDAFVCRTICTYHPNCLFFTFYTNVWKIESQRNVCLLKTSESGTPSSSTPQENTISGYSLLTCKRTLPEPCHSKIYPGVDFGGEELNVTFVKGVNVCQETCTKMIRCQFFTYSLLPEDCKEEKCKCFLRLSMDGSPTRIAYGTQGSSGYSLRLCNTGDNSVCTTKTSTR
Sequence of Plasma kallikrein (P03952 391-638 limits assumed): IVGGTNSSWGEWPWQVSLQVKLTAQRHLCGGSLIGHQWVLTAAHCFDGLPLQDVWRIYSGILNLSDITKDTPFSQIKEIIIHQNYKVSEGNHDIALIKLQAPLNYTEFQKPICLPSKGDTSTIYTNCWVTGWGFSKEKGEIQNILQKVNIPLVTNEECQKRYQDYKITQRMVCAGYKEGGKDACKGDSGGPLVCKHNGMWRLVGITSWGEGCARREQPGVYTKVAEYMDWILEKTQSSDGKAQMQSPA
As to `Cc1cc(N)nc(C)c1CNC(=O)c1cn(Cc2ccc3ncc(Cl)cc3c2)c2cccnc12`, the concentration for half-maximal inhibition (IC50) was less than 100 nM.
As for `Cc1cc(N)nc(C)c1CNC(=O)c1cc(C(F)(F)F)n(Cc2ccc3ncc(Cl)cc3c2)n1`, the figure is 1000 to 10000 nM; as for `Cc1cc(N)nc(C)c1CNC(=O)c1nn(Cc2ccc3ncc(Cl)cc3c2)nc1C(F)(F)F`, less than 100 nM; as for `Cc1cc(N)nc(C)c1CNC(=O)c1cn(Cc2ccc3ncc(Cl)cc3c2)c(CO)n1`, less than 100 nM.
For `Cc1cc(N)nc(C)c1CNC(=O)c1ccn(Cc2ccc3ncc(Cl)cc3c2)n1`, the IC50 is less than 100 nM.
